Results on three compounds are retold here after patent US9370474B2, “High-clarity aqueous concentrates of 4-hexylresorcinol” (JOHNSON & JOHNSON CONSUMER INC., priority 2009, dated 2016).

The nature of series [1]: Clarity of mixtures of resorcinol/phenol analogues with water. It is filed as physicochemical. The note with it: separately mixed with water at 50% and 75% concentrations. The text has this: 4-Octylresorcinol and 3-methoxyphenol (from Sigma-Aldrich of St. Louis, Mo.) were separately mixed with water at 50% and 75% concentrations.
For series [2] the following is noted: cited from earlier work.

On to `COc1cccc(O)c1` [3-methoxyphenol], for which the “Clarity / appearance of mixtures with water” value in series [1] is “None of the mixtures were clear”.
As for `CCCCCCCCc1ccc(O)cc1O` [4-Octylresorcinol], in series [1], the “Clarity / appearance of mixtures with water” value was “None of the mixtures were clear”.
On to `CCCCCCc1ccc(O)cc1O` [Example 4-HR, 4-Hexylresorcinol], for which the “Water solubility (prior art characterization)” value in series [2] is “water-insoluble”.
